The test system of data set [1] is EMX1 locus in HEK293T cells. Nature of the data set: NHEJ frequency by T7 endonuclease I assay, EMX1 locus, HEK293T cells. The format is cell-based, human. The following applies: for NHEJ frequency: nocodazole-treated cells (200 ng/ml, 17 h), 50-200 ρmol template 1. The source says: (§1) For EMX1: forward [NT] ID NO:1404) and [NT] NO:1405). For DYRK1: forward [NT] ID NO:1406) and reverse [NT] NO:1407).

In data set [2] the test system is EMX1 locus in HEK293T cells. As to the kind of experiment: HDR frequency by HindIII digestion, EMX1 locus, HEK293T cells. The conditions noted are these: for HDR efficiency: 50-200 ρmol template 1. Type of data set: cell-based, human.
Text: as §1

Data set [3] has as its system human ES cells. As to the kind of experiment: Cell viability of human ES cells during synchronization. Type of data set: cell-based. The conditions noted are these: hES cells; aphidicolin treatment after nocodazole, at 10 h.
Data set [4] deals with DYRK1 locus in HEK293T cells. Nature of the data set: NHEJ frequency by T7 endonuclease I assay, DYRK1 locus, HEK293T cells. Type of data set: cell-based, human. The conditions noted are these: for NHEJ frequency: nocodazole synchronized cells.
Data set [5] concerns DYRK1 locus in HEK293T cells. As to the kind of experiment: HDR frequency by HindIII digestion, DYRK1 locus, HEK293T cells. Type of data set: cell-based, human. The following applies: for HDR frequency: nocodazole synchronized cells.
Data set [6] has as its system EMX1 locus in human embryonic stem cells (hES). As to the kind of experiment: NHEJ frequency by T7 endonuclease I assay, EMX1 locus, human ES cells. The format is cell-based. The following applies: nocodazole synchronization (16 h), 100 ρmol template 4.
The test system is the same in data set [7]. As to the kind of experiment: HDR frequency by HindIII digestion, EMX1 locus, human ES cells. The following applies: nocodazole synchronization (16 h), 30 or 100 ρmol Cas9 RNP, template 4. The format is cell-based.
The subject of data set [8] is HEK293T cells. Nature of the data set: FACS analysis of DNA content / cell cycle. The format is cell-based, human. The following applies: nocodazole-treated vs untreated cells. From the text:
The first objective was to test whether S phase was ideal for HDR in HEK293T cells. The approach was to chemically and reversibly synchronize the cells at G1, S and M phases (FIG. 1A). Lovastatin blocks at early G1 and partially at G2/M phase, by inhibiting HMG-CoA reductase and resulting in the depletion of mevalonate, which is an essential substrate for cholesterol synthesis. Mimosine arrests cells at the G1-S border prior to onset of DNA replication by an unknown mechanism. […] Excess thymidine causes feedback inhibition of deoxycytosine synthesis. Hydroxyurea blocks cells at S phase by decreasing the production of deoxyribonucleotide via inhibition of the enzyme ribonucleotide reductase. Nocodazole inhibits microtubule polymerization which is a signature structural feature as cells enter mitosis, causing arrest at G2/M phase. The drugs effects were confirmed by fluorescence activated cell sorter (FACS) analysis of the cell cycle (FIG. 1B).
FIG. 1A-1D depict the effect of cell cycle synchronization on NHEJ and HDR frequencies in HEK293T cells. (A) Chemical inhibitors were used to arrest cells at specific phases of cell cycle. Lovastatin (Lov) blocks cells in G1 phase by inhibiting cholesterol synthesis. […] The mean % NHEJ/HDR and standard deviation (error bars) were calculated from three experiments.

Where [9] appears, read: 30 ρmol of Cas9, 100 ρmol template 1.
Setting [10] is: inhibitor-synchronized cells, 30 ρmol of Cas9, 100 ρmol template 1.
Setting [11] is: 30 and 100 ρmol Cas9 RNP, 100 ρmol HDR template 1, inhibitor synchronization before nucleofection.
Setting [12] is: all doses of Cas9 RNP, vs unsynchronized.
Where [13] appears, read: 100 ρmol of Cas9, 100 ρmol template 1.
The mark [14] stands for this setting: nocodazole synchronization, 30 ρmol Cas9 RNP, 50 ρmol HDR template.

“Also recorded” adds a separate entry of the source.

In the case of `C[C@@]1(CO)[C@H](O)CC[C@@]2(C)[C@H]1CC[C@H]1C[C@@H]3C[C@@]12CC[C@]3(O)CO` [aphidicolin], the “NHEJ frequency compared to the unsynchronized cells” value in data set [1] (setting [9]) is on record as “increased the NHEJ frequency slightly”. For the same molecule, the HDR frequency in data set [2] (setting [10]) worked out at 15%. Besides, in data set [2] (nocodazole synchronized, aphidicolin 2 μg/ml added to media immediately after nucleofection, 30 ρmol Cas9 RNP, 50 ρmol template), the “HDR frequency with aphidicolin block” value is “significantly reduced”. In addition, the Cell viability entry in data set [3] is “substantial drop in cell viability”.

For `NC(=O)NO` [hydroxyurea], the “NHEJ frequency compared to the unsynchronized cells” value in data set [1] (setting [11]) is reported as “greatly decreased”. The “HDR frequency compared to the unsynchronized cells” value in data set [2] (setting [11]) was “greatly decreased”.

Turning to `CC[C@H](C)C(=O)O[C@H]1C[C@@H](C)C=C2C=C[C@H](C)[C@H](CC[C@@H]3C[C@@H](O)CC(=O)O3)[C@H]21` [lovastatin], the “NHEJ frequency compared to the unsynchronized cells” value in data set [1] (setting [11]) was “greatly decreased”. Moreover, the “HDR frequency compared to the unsynchronized cells” value in data set [2] (setting [11]) is “greatly decreased”.

Consider `NC(Cn1ccc(=O)c(O)c1)C(=O)O` (centres unmarked) [mimosine], for which the “NHEJ frequency compared to the unsynchronized cells” value in data set [1] (setting [11]) is reported as “greatly decreased”. In addition, in data set [2] (setting [11]), the “HDR frequency compared to the unsynchronized cells” value is “greatly decreased”.

For `COC(=O)Nc1nc2ccc(C(=O)c3cccs3)cc2[nH]1` [nocodazole], in data set [1] (setting [9]), the “NHEJ frequency compared to the unsynchronized cells” value was “increased the NHEJ frequency slightly”. The “Increase of NHEJ frequency by synchronization” value is “two-fold” in data set [1] (nocodazole vs unsynchronized, 10 ρmol Cas9 RNP) and 1.5 fold in data set [1] (nocodazole vs unsynchronized, 30 ρmol Cas9 RNP). Also, the “Enhancement of NHEJ frequency by synchronization” value in data set [1] (nocodazole vs unsynchronized, 100 ρmol Cas9 RNP) is “diminished”. The NHEJ frequency in data set [1] (10 ρmol Cas9 RNP) is 15-17%; in data set [1] (30 ρmol Cas9 RNP), 35-37%; in data set [1] (100 ρmol Cas9 RNP), 46-49%; in data set [4] (10 ρmol Cas9 RNP), 20-24%; in data set [4] (30 ρmol Cas9 RNP), 45-47%; in data set [4] (100 ρmol Cas9 RNP), 63-65%. Moreover, the values for the NHEJ frequency in data set [6] (30 ρmol Cas9 RNP) and in data set [6] (100 ρmol Cas9 RNP) were 9% and 28-31%, respectively. Also, the “HDR frequency relative to the unsynchronized cells” value in data set [2] (30 ρmol Cas9 RNP, 50 ρmol HDR template (templates 1-7)) is recorded as “overall higher HDR frequency”. Further, the HDR frequency in data set [2] (setting [10]) is 19%; in data set [5] (10 ρmol Cas9 RNP) it was 5-6%; in data set [5] (30 ρmol Cas9 RNP), 12-17%; in data set [5] (100 ρmol Cas9 RNP) it was 24-25%. Besides, the HDR efficiency is reported as 9-15% in data set [2] (nocodazole synchronization, 10 ρmol Cas9 RNP); 22-28% in data set [2] (nocodazole synchronization, 30 ρmol Cas9 RNP); 24-32% in data set [2] (nocodazole synchronization, 100 ρmol Cas9 RNP). For the same molecule, the “Highest HDR frequency (representative gel of triplicate experiment)” value in data set [2] (nocodazole synchronization, 100 ρmol of Cas9, 100 ρmol template 1) was 31%. Moreover, the “Enhancement of NHEJ frequency by nocodazole synchronization” value in data set [4] (setting [12]) was “more than two-fold”. The “Enhancement of HDR frequency by nocodazole synchronization” value in data set [5] (setting [12]) was “over six-fold”. Further, in data set [7], the HDR events result was “no HDR event was detected”. Moreover, the “Enrichment of cells arrested at M phase (DNA content, FACS)” value in data set [8] was “two-fold enrichment; also recorded: three-fold enrichment”.

In the case of `Cc1cn([C@H]2C[C@H](O)[C@@H](CO)O2)c(=O)[nH]c1=O` [thymidine], the “NHEJ frequency compared to the unsynchronized cells” value in data set [1] (setting [9]) was “slightly reduced”. For the same molecule, the “NHEJ frequency compared to the unsynchronized cells (reduced or not)” value in data set [1] (setting [13]) was “not”. The “HDR frequency compared to the unsynchronized cells” value in data set [2] (setting [9]) is given as “slightly reduced”. Further, the “HDR frequency compared to the unsynchronized cells (reduced or not)” value in data set [2] (setting [13]) was “not”.

For the molecule “template 1: 183-nt single-strand DNA oligonucleotide HDR donor encoding a HindIII site, 90-nt and 55-nt asymmetrical homology arms (DNA CCACCGCTACGAAGCTTGTCATTGGAGGTGACATCGATGTCCTC; single-stranded DNA HDR donor oligonucleotide, chemistry not given here)”, the “HDR frequency compared between templates” value in data set [2] (30 ρmol Cas9 RNP, 50 ρmol HDR template) is on record as “lower HDR frequency than template 3”.

Take “template 2: single-stranded oligonucleotide HDR template with HindIII and BamHI sites, 30-nt homology arms (DNA GGATCCAAGCTT; single-stranded DNA HDR donor oligonucleotide, chemistry not given here)”: in data set [2] (setting [14]), the HDR frequency came out at 5%.

As to “template 3: single-stranded oligonucleotide HDR template with HindIII and BamHI sites, 60-nt homology arms (DNA GGATCCAAGCTT; single-stranded DNA HDR donor oligonucleotide, chemistry not given here)”, the HDR frequency in data set [2] (setting [14]) was found to be 19%. The “Increase of HDR frequency on extending homology arms from 30 nt to 60 nt” value in data set [2] (nocodazole synchronization, vs template 2) is reported as “four-fold”.

In data set [2] (setting [14]), “template 4: single-stranded HDR template, 90-nt homology arms, complementary orientation (DNA GGATCCAAGCTT; single-stranded DNA HDR donor oligonucleotide, chemistry not given here)” had an HDR frequency of 23%.

The molecule “template 6: double-stranded HDR template PCR amplified from single-stranded template 5 (sense AAGCTTGGATCC; antisense GGATCCAAGCTT; DNA, phosphodiester; double-stranded PCR-amplified HDR donor)” came in with an HDR frequency in data set [2] (setting [14]) of around 7%.

“template 7: double-stranded HDR template assembled from two fragments by overlapping PCR of HEK293T genomic DNA (sense AAGCTTGGATCC; antisense GGATCCAAGCTT; DNA, phosphodiester; double-stranded HDR donor assembled by overlapping PCR)” had an HDR frequency in data set [2] (setting [14]) of around 7%.

B1: template 5: single-stranded HDR template, 90-nt homology arms, non-complementary orientation (SEQ ID NO:1397) (nucleic acid)
DNA: TGGCCAGGGAGTGGCCAGAGTCCAGCTTGGGCCCACGCAGGGGCCTGGCCAGCAGCAAGCAGCACTCTGCCCTCGTGGGTTTGTGGTTGCGGATCCAAGCTTTTGGAGGTGACATCGATGTCCTCCCCATTGGCCTGCTTCGTGGCAATGCGCCACCGGTTGATGTGATGGGAGCCCTTCTTCTTCTGCTCG
modifications: Synthetic nucleic acid sequence
B1: the HDR frequency in data set [2] (setting [14]) was found to be 20%.

For the origin of these results see patent publication US10570418B2, “Methods and compositions for RNA-directed target DNA modification” (The Regents of the University of California, priority 2014, dated 2020).
